Measured values from ChEMBL document CHEMBL1201862, “PubChem BioAssay data set” (2004).
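Cultured in 96-well plates, cells were exposed to test compound for 48 hours across five concentrations. GI50 is the concentration that inhibits growth by half.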 Activity calls are given as the source filed them. Cut-off read from the data, not from the text of the source: active = GI50 up to about 1.1 µM and inactive = higher.

Key:
Experiment in all cases: NCI-60 cell line screen, 48 h
[1] = test system: Hs-578T
[2] = test system: MDA-N
[3] = test system: DLD-1
[4] = test system: HOP-18
[5] = test system: KM-20L2
[6] = test system: LXFL 529
[7] = test system: SNB-78
[8] = test system: XF498

`[N-]=[N+]=NCC(=O)c1cnc(O)nc1O` was tested, and the GI50 [1] was > 100 µM (inactive) and the GI50 [2] was > 100 µM (inactive).
In the case of `Cc1cc2c(cc1C)[n+]([O-])c(C(F)(F)F)c(C(=O)c1ccccc1)[n+]2[O-]`, the GI50 [1] is reported as 2.58 µM (inactive) and the GI50 [2] is reported as 3.35 µM (inactive).
For `CC(C)=NNc1cnnc2ccc([N+](=O)[O-])cc12`, the GI50 [1] was > 100 µM (inactive) and the GI50 [2] was 47.2 µM (inactive).
For `O=C1/C(=C/c2ccccc2)CCc2ccc(Cl)nc21`, the GI50 [2] was 4 µM (inactive).
In the case of `CC(C)(C)c1cc(C(=O)/C=C/c2cc[nH]n2)cc(C(C)(C)C)c1O`, the GI50 [1] is reported as 2.57 µM (inactive).
In the case of `COc1cccc(C2CC(C)(O)Oc3cc4c(cc32)OCO4)c1` (stereo unspecified), the GI50 [1] is reported as 16.4 µM (inactive) and the GI50 [2] is reported as 2.82 µM (inactive).
For `COc1ccc(C23c4ccc(OC)cc4CC2(c2ccc([N+](=O)[O-])cc2)Cc2cc(OC)ccc23)cc1` (stereo unspecified), the GI50 [3] was > 22.8 µM (inactive), the GI50 [4] was 1.17 µM (inactive) and the GI50 [5] was > 15.7 µM (inactive). The GI50 [6] was > 54.5 µM (inactive), the GI50 [7] was > 100 µM (inactive) and the GI50 [8] was > 100 µM (inactive).
`O=C1CCC2(c3ccccc3)Nc3ncccc3N12` (stereo unspecified) was tested, and the GI50 [3] was > 100 µM (inactive), the GI50 [5] was > 100 µM (inactive) and the GI50 [6] was > 100 µM (inactive). For the same molecule, the GI50 [7] was > 100 µM (inactive) and the GI50 [8] was > 100 µM (inactive).
For `COC(=O)C(CC1=C(O)Nc2ccccc2N1)/C(=N/NC(N)=O)C(=O)Nc1ccccc1C` (stereo unspecified), the GI50 [3] was 41.4 µM (inactive), the GI50 [4] was > 100 µM (inactive) and the GI50 [5] was > 100 µM (inactive). The GI50 [6] was 69.8 µM (inactive) and the GI50 [7] was > 100 µM (inactive).
`CC(=O)Oc1cc(OC(C)=O)c2cc3c(cc2c1OC(C)=O)C(=O)C1(CCCC1)C3=O` was tested, and the GI50 [3] was 20 µM (inactive), the GI50 [4] was 22.8 µM (inactive) and the GI50 [5] was 22.1 µM (inactive). For the same molecule, the GI50 [7] was 22.9 µM (inactive) and the GI50 [8] was 16.4 µM (inactive).
`CC1=Cc2ccc(C)cc2C(=O)C1=O` was tested, and the GI50 [1] was 13.9 µM (inactive) and the GI50 [2] was 4.18 µM (inactive).
`CN1CCN(CCCCN2c3ccccc3Sc3cc(N=[N+]=[N-])ccc32)CC1` was tested, and the GI50 [1] was 1.95 µM (inactive) and the GI50 [2] was 3.41 µM (inactive).
With `ON1CCc2c([nH]c3ccccc23)C1c1ccc(Cl)cc1` (stereo unspecified) the GI50 [3] was 25.2 µM (inactive), the GI50 [5] was 21.7 µM (inactive) and the GI50 [6] was 24 µM (inactive). For the same molecule, the GI50 [7] was 33 µM (inactive) and the GI50 [8] was 22.6 µM (inactive).
In the case of `O=[N+]([O-])c1ccc(/C=C(/c2ccc([N+](=O)[O-])o2)S(=O)(=O)c2ccccc2)o1`, the GI50 [1] is reported as 15.4 µM (inactive).
In the case of `CC(C)OC(=O)c1ccc(NCC2=CC(=O)C=CC2=O)cc1Cl`, the GI50 [1] is reported as 23.3 µM (inactive) and the GI50 [2] is reported as 8.39 µM (inactive).
In the case of `NNc1nncn1N`, the GI50 [1] is reported as > 100 µM (inactive).
With `COc1ccc(N2C(=O)C(N3C(=O)C=CC3=O)C2C=O)cc1` (stereo unspecified) the GI50 [3] was > 100 µM (inactive), the GI50 [4] was > 100 µM (inactive) and the GI50 [5] was > 100 µM (inactive). The GI50 [6] was > 100 µM (inactive) and the GI50 [7] was > 100 µM (inactive).
With `CN(C)CCC(/C=C/c1ccccc1)=N\Nc1ccccc1` the GI50 [3] was 0.596 µM (active), the GI50 [4] was 4.5 µM (inactive) and the GI50 [5] was 0.241 µM (active). For the same molecule, the GI50 [6] was 0.185 µM (active) and the GI50 [7] was 3.63 µM (inactive).
With `CCCCCCCCCCCCCCCCCCOCC(O)COP(=O)(O)OCC1OC(n2cc(F)c(=O)[nH]c2=O)CC1O` (stereo unspecified) the GI50 [1] was 14.3 µM (inactive) and the GI50 [2] was 13.4 µM (inactive).
For `CNC1C(O)C(OC2C(N)CC(N)C(OC3OC(C(C)O)C(O)C(O)C3N)C2O)OCC1(C)O` (stereo unspecified), the GI50 [1] was > 100 µM (inactive) and the GI50 [2] was > 100 µM (inactive).
`N#CC(C#N)=C/C=C(\Sc1c(Cl)c(Cl)nc(Cl)c1Cl)c1ccc(Cl)cc1` was tested, and the GI50 [1] was 15.7 µM (inactive).
For `O=c1c2ccc3cccc4c(=O)cc(c5ccccc15)-c2c34`, the GI50 [3] was > 100 µM (inactive), the GI50 [4] was 22.7 µM (inactive) and the GI50 [5] was > 100 µM (inactive). For the same molecule, the GI50 [6] was 29.6 µM (inactive).
With `CCc1n[nH]c(=O)n1/N=C(\C)c1ccc([N+](=O)[O-])cc1` the GI50 [1] was 92.3 µM (inactive) and the GI50 [2] was > 100 µM (inactive).
`COc1cc(C)c2c(c1)CN1CN2Cc2cc(OC)cc(C)c21` was tested, and the GI50 [3] was 31.4 µM (inactive), the GI50 [6] was 60 µM (inactive) and the GI50 [7] was 56.8 µM (inactive).
For `COc1ccc(C2NC3=C(CCCC3)C3(C#N)C(=O)N=C(N)C23C#N)cc1` (stereo unspecified), the GI50 [1] was > 100 µM (inactive) and the GI50 [2] was > 100 µM (inactive).
`NNC(=O)CSc1nc2ccccc2c(=O)n1N` was tested, and the GI50 [1] was 29.7 µM (inactive) and the GI50 [2] was > 100 µM (inactive).
`Cc1cc2c(O)c(c1)CN(CC(=O)O)Cc1cc(C)cc(c1O)CN(CC(=O)O)Cc1cc(C)cc(c1O)CN(CC(=O)O)C2` was tested, and the GI50 [1] was > 100 µM (inactive) and the GI50 [2] was > 100 µM (inactive).
For `COCN1C(=O)[C@@H]2CCCN2C(=O)c2ccc([N+](=O)[O-])cc21`, the GI50 [1] was > 100 µM (inactive).
For `[N-]=[N+]=CC(=O)C1CCCN1C(=O)c1ccccc1` (stereo unspecified), the GI50 [1] was > 10 µM (inactive) and the GI50 [2] was > 10 µM (inactive).
In the case of `COc1ccc(C(OCC2OC(n3ccc(Oc4c(F)c(F)c(F)c(F)c4F)nc3=O)CC2OP(OCCC#N)N(C(C)C)C(C)C)(c2ccccc2)c2ccc(OC)cc2)cc1` (stereo unspecified), the GI50 [1] is reported as > 100 µM (inactive) and the GI50 [2] is reported as > 100 µM (inactive).
For `O=C(O)COc1c(Cl)cc(Cl)c(C(c2c(Cl)cc(Cl)c(OCC(=O)O)c2Cl)C(Cl)(Cl)Cl)c1Cl`, the GI50 [1] was 38 µM (inactive) and the GI50 [2] was > 100 µM (inactive).
